Experimental data taken from PubChem BioAssay AID248 (DTP/NCI, 2004).
Toxic doses and inconclusive results are not listed. Rule as the data show it: active = T/C of 150% or more; inactive = T/C below 125%.

Tested on: L1210 leukemia ip in BDF1 mice, survival T/C
Assay: NCI In Vivo Anticancer Drug Screen. Data for tumor model L1210 Leukemia (intraperitoneal) in B6D2F1 (BDF1) mice
Conditions: endpoint: mean survival time, higher = longer survival
Summary of the method: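 Transplanted-tumor mice were given test agent; controls received vehicle only. Survival readings from the two groups were divided (treated over control).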

Measured: T/C

COc1cc2c(c(OC)c1OC)-c1ccc(OC)c(=O)cc1[C@@H](NC(=O)CF)CC2
inactive: dose: 0.04 mg/kg/injection, schedule: Q01DX009 (ip), vehicle: saline 113 % of control | dose: 0.06 mg/kg/injection, schedule: Q04DX002 (ip), vehicle: saline with Tween-80 101 % of control | dose: 0.09 mg/kg/injection, schedule: Q01DX001 (ip), vehicle: saline with Tween-80 116 % of control | dose: 0.09 mg/kg/injection, schedule: Q01DX009 (ip), vehicle: saline with Tween-80 122 % of control | dose: 0.09 mg/kg/injection, schedule: Q01DX009 (ip), vehicle: saline 118 % of control | dose: 0.09 mg/kg/injection, schedule: Q04DX003 (ip), vehicle: saline with Tween-80 108 % of control | dose: 0.12 mg/kg/injection, schedule: Q04DX002 (ip), vehicle: saline with Tween-80 104 % of control | dose: 0.18 mg/kg/injection, schedule: Q01DX001 (ip), vehicle: saline with Tween-80 119 % of control | dose: 0.18 mg/kg/injection, schedule: Q04DX003 (ip), vehicle: saline with Tween-80 113 % of control | dose: 0.25 mg/kg/injection, schedule: Q04DX002 (ip), vehicle: saline with Tween-80 117 % of control | dose: 0.37 mg/kg/injection, schedule: Q01DX001 (ip), vehicle: saline with Tween-80 114 % of control | dose: 0.37 mg/kg/injection, schedule: Q01DX009 (ip), vehicle: saline with Tween-80 100 % of control | dose: 0.37 mg/kg/injection, schedule: Q04DX003 (ip), vehicle: saline with Tween-80 118 % of control | dose: 0.5 mg/kg/injection, schedule: Q04DX002 (ip), vehicle: saline with Tween-80 121 % of control | dose: 0.75 mg/kg/injection, schedule: Q01DX001 (ip), vehicle: saline with Tween-80 121 % of control | dose: 0.75 mg/kg/injection, schedule: Q04DX003 (ip), vehicle: saline with Tween-80 116 % of control | dose: 1.5 mg/kg/injection, schedule: Q04DX002 (ip), vehicle: saline with Tween-80 113 % of control | dose: 2.0 micrograms/kg/injection, schedule: Q01DX009 (ip), vehicle: saline with Tween-80 97 % of control | dose: 5.0 micrograms/kg/injection, schedule: Q01DX009 (ip), vehicle: saline with Tween-80 105 % of control | dose: 10.0 micrograms/kg/injection, schedule: Q01DX009 (ip), vehicle: saline with Tween-80 89 % of control
